Results taken from patent US10428066B2, “Imidazo[4,5-C]pyridine and pyrrolo[2,3-C]pyridine derivatives as SSAO inhibitors” (PROXIMAGEN, LLC, priority 2013, dated 2019).
pIC50: −log10 of the molar value.

How the values were obtained:
[1] = molecular target: human ether a go-go related gene (hERG) K+ channel (Homo sapiens (Human), UniProt Q12809); test: hERG assay, IonWorks patch clamp electrophysiology; type: cell-based; conditions: Chinese Hamster Lung cell line stably expressing hERG, maximum assay concentration 11 uM
Method: Compounds of the invention were tested for inhibition of the human ether a go-go related gene (hERG) K^+ channel using IonWorks patch clamp electrophysiology. 8 Point concentration-response curves were generated on two occasions using 3-fold serial dilutions from the maximum assay concentration (11 uM). Electrophysiological recordings were made from a Chinese Hamster Lung cell line stably expressing the full length hERG channel. Single cell ion currents were measured in the perforated patch clamp configuration (100 ug/mL amphoterocin) at room temperature using an IonWorks Quattro instrument. The internal solution contained 140 mM KCl, 1 mM MgCl2, 1 mM EGTA and 20 mM HEPES and was buffered to pH 7.3. The external solution contained 138 mM NaCl, 2.7 mM KCl, 0.9 mM CaCl2, 0.5 mM MgCl2, 8 mM Na2HPO4 and 1.5 mM KH2PO4, and was buffered to pH 7.3. […] This sequence was repeated 5 times at a frequency of 0.25 Hz. Currents were measured from the tail step at the 5th pulse, and referenced to the holding current. Compounds were incubated for 6-7 min prior to a second measurement of the hERG signal using an identical pulse train. A minimum of 17 cells were required for each plC50 curve fit. A control compound (quinidine) was used (see Table 20 below).

[2] = molecular target: purified recombinantly expressed human SSAO (Homo sapiens (Human), UniProt Q16853); test: SSAO enzyme inhibition assay (HRP-coupled hydrogen peroxide detection or 14C-benzaldehyde detection, benzylamine substrate); type: biochemical; conditions: human recombinant SSAO, RT
Method: All primary assays were performed at RT. with purified recombinantly expressed human SSAO. Enzyme was prepared essentially as described in Öhman et al. (Protein Expression and Purification 46 (2006) 321-331). In addition, secondary- and selectivity assays were performed using SSAO prepared from various tissues or purified rat recombinant SSAO. The enzyme activity was assayed with benzylamine as substrate by measuring either benzaldehyde production, using ^14C-labeled substrate, or by utilizing the production of hydrogen peroxide in a horseradish peroxidase (HRP) coupled reaction. Briefly, test compounds were dissolved in dimethyl sulfoxide (DMSO) to a concentration of 10 mM. Dose-response measurements were assayed by either creating 1:10 serial dilutions in DMSO to produce a 7 point curve or by making 1:3 serial dilutions in DMSO to produce 11 point curves.
In a horseradish peroxidase (HRP) coupled reaction, hydrogen peroxide oxidation of 10-acetyl-3,7-dihydroxyphenoxazine produced resorufin, which is a highly fluorescent compound (Zhout and Panchuk-Voloshina. Analytical Biochemistry 253 (1997) 169-174; Amplex® Red Hydrogen Peroxide/peroxidase Assay kit, Invitrogen A22188). Enzyme and compounds in 50 mM sodium phosphate, pH 7.4 were set to pre-incubate in flat-bottomed microtiter plates for approximately 15 min before initiating the reaction by addition of a mixture of HRP, benzylamine and Amplex reagent. Benzylamine concentration was fixed at a concentration corresponding to the Michaelis constant, determined using standard procedures. Fluorescence intensity was then measured at several time points during 1-2 h, exciting at 544 nm and reading the emission at 590 nm. For the human SSAO assay final concentrations of the reagents in the assay wells were: SSAO enzyme 1 ug/ml, benzylamine 100 uM, Amplex reagent 20 uM, HRP 0.1 U/mL and varying concentrations of test compound. The inhibition was measured as % decrease of the signal compared to a control without inhibitor (only diluted DMSO). The background signal from a sample containing no SSAO enzyme was subtracted from all data points. Data was fitted to a four parameter logistic model and IC50 values were calculated using the GraphPad Prism 4 or XLfit 4 programs.
SSAO activity was assayed using 14C-labeled benzylamine and analysed by measuring radioactive benzaldehyde. In a white 96-well optiplate (Packard), 20 uL of diluted test compound was pre-incubated at room temperature with 20 uL SSAO enzyme for approximately 15 min with continuous agitation. All dilutions were made with PBS. The reaction was initiated by adding 20 uL of the benzylamine substrate solution containing [7-14C] Benzylamine hydrochloride (CFA589, GE Healthcare). The plate was incubated for 1 h as above after which the reaction was stopped by acidification (10 uL 1M aq HCl). Then 90 uL Micro Scint-E solution (Perkin-Elmer) was added to each well and the plate was continuously mixed for 15 min. Phase separation occurred instantly and activity was read in a Topcount scintillation counter (Perkin-Elmer). In the final reaction well, the human recombinant SSAO concentration was 10 ug/ml. In order to optimize sensitivity, the substrate concentration was decreased as compared to the HRP coupled assay in order to get a higher fraction of radioactive product. In the human SSAO assay, benzylamine concentration was 40 uM (0.2 uCi/mL). Data was analysed as above.

human ether a go-go related gene (hERG) K+ channel, sequence (Q12809 whole entry): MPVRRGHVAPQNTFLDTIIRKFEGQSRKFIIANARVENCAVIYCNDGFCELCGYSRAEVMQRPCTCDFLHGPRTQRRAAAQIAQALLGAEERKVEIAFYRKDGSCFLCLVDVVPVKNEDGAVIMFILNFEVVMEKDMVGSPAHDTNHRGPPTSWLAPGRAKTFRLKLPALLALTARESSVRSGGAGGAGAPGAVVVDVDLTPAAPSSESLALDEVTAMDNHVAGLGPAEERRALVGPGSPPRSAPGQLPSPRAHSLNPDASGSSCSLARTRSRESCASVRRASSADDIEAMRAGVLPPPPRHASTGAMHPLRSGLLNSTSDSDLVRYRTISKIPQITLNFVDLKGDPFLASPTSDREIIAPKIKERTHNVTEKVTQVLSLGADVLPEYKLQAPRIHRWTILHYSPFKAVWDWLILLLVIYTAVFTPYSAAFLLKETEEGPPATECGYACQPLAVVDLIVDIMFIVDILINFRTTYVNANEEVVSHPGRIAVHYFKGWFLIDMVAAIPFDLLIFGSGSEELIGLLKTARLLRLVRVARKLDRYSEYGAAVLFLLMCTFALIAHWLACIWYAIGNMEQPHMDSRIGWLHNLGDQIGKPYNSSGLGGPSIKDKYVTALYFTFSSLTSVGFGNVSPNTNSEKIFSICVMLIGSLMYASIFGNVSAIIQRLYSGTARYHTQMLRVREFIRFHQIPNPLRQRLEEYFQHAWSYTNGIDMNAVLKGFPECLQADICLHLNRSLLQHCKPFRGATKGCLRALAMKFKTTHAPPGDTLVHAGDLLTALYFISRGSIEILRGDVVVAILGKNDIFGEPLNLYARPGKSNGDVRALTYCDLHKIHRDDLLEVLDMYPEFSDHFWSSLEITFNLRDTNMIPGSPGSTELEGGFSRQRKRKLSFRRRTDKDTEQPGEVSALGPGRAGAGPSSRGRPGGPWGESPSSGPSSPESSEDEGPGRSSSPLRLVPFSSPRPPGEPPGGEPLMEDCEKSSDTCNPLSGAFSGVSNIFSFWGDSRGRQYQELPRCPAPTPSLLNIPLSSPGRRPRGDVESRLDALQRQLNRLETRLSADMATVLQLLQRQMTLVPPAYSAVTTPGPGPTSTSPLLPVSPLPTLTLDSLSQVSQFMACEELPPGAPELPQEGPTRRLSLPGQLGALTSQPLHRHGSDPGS
purified recombinantly expressed human SSAO, sequence (Q16853 29-763): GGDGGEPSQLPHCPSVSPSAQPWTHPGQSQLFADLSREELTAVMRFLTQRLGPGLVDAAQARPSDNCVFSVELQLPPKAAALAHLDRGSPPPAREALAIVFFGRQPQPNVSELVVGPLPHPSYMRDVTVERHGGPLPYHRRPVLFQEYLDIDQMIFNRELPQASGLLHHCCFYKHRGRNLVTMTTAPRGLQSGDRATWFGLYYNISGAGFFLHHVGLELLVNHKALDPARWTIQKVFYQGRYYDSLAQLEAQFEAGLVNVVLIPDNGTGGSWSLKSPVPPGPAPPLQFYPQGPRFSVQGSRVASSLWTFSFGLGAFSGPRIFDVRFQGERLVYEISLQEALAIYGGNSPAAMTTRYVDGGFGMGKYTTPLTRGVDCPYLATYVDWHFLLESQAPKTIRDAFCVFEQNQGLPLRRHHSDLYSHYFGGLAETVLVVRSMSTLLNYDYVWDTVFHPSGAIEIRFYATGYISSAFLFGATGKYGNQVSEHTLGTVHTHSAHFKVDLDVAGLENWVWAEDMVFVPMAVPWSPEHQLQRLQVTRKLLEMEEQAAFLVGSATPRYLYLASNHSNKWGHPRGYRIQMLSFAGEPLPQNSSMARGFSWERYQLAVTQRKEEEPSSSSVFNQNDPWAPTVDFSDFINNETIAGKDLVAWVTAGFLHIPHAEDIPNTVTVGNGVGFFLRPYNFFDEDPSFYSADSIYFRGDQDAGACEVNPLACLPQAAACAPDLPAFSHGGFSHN

| Structure (SMILES) | pIC50 [1] | pIC50 [2] |
| --- | --- | --- |
| Cc1ccc(-n2c(-c3ccc(N4CCOCC4)nc3)nc3ccncc32)c(F)c1 [Example 67, 4-{5-[3-(2-Fluoro-4-methylphenyl)-3H-imidazo[4,5-c]pyridin-2-yl]pyridin-2-yl}morpholine] | 5.00 to 6.00 | – |
| Clc1ccc(-n2c(-c3cnc(NC4CCOCC4)nc3)cc3ccncc32)cc1 [Example 139, 5-[1-(4-Chlorophenyl)-1H-pyrrolo[2,3-c]pyridin-2-yl]-N-(oxan-4-yl)pyrimidin-2-amine] | 6.00 to 7.00 | – |
| c1ccc(-n2c(-c3cnc(N4CCOCC4)nc3)cc3ccncc32)cc1 [Example 131, 4-(5-{1-Phenyl-1H-pyrrolo[2,3-c]pyridin-2-yl}pyrimidin-2-yl)morpholine] | 5.00 to 6.00 | 5.92 to 6.70 |
| O=c1cc(-c2cc3ccncc3n2-c2ccc(Cl)cc2)cc[nH]1 [Example 142, 4-[1-(4-Chlorophenyl)-1H-pyrrolo[2,3-c]pyridin-2-yl]-1,2-dihydropyridin-2-one] | 5.00 to 6.00 | 6.70 to 7.30 |
| Clc1ccc(-n2c(-c3ccc(N4CCOCC4)nn3)nc3ccncc32)cc1 [Example 4, 4-{6-[3-(4-Chlorophenyl)-3H-imidazo[4,5-c]pyridin-2-yl]pyridazin-3-yl}morpholine] | 5.00 to 6.00 | – |
| CS(=O)(=O)NC1CCN(c2ccc(-c3nc4ccncc4n3-c3ccc(Cl)cc3)cn2)CC1 [Example 88, N-(1-{5-[3-(4-Chlorophenyl)-3H-imidazo[4,5-c]pyridin-2-yl]pyridin-2-yl}piperidin-4-yl)methanesulfonamide] | 5.00 to 6.00 | – |
| Fc1cnccc1-c1cc2ccncc2n1-c1ccc(Cl)cc1 [Example 152, 4-[1-(4-Chlorophenyl)-1H-pyrrolo[2,3-c]pyridin-2-yl]-3-fluoropyridine] | 5.00 to 6.00 | 5.92 to 6.70 |
| Nc1cc(-c2cc3ccncc3n2-c2ccc(Cl)cc2)ccn1 [Example 147, 4-[1-(4-Chlorophenyl)-1H-pyrrolo[2,3-c]pyridin-2-yl]pyridin-2-amine] | 5.00 to 6.00 | – |
| Clc1ccc(-n2c(-c3cnc(N4CCOCC4)nc3)nc3ccncc32)cc1 [Example 51, 4-{5-[3-(4-Chlorophenyl)-3H-imidazo[4,5-c]pyridin-2-yl]pyrimidin-2-yl}morpholine] | 5.00 to 6.00 | – |
| O=c1cc(-c2cc3ccncc3n2-c2ccc(Cl)cc2)ccn1C1CC1 [Example 138, 4-[1-(4-Chlorophenyl)-1H-pyrrolo[2,3-c]pyridin-2-yl]-1-cyclopropyl-1,2-dihydropyridin-2-one] | 5.00 to 6.00 | – |
| Clc1ccc(-n2c(-c3ccc(N4CCOCC4)nc3)nc3ccncc32)cc1 [Example 47, 4-{5-[3-(4-Chlorophenyl)-3H-imidazo[4,5-c]pyridin-2-yl]pyridin-2-yl}morpholine] | 5.00 to 6.00 | – |
| Clc1ccc(-n2c(-c3cccnc3)cc3ccncc32)cc1 [Example 122, 3-[1-(4-Chlorophenyl)-1H-pyrrolo[2,3-c]pyridin-2-yl]pyridine] | 5.00 to 6.00 | 6.70 to 7.30 |
| Clc1ccc(-n2c(-c3ccc(CN4CCOCC4)nc3)cc3ccncc32)cc1 [Example 140, 4-({5-[1-(4-Chlorophenyl)-1H-pyrrolo[2,3-c]pyridin-2-yl]pyridin-2-yl}methyl)morpholine] | 5.00 to 6.00 | – |
| Clc1ccc(-n2c(-c3ccncc3Cl)cc3ccncc32)cc1 [Example 153, 3-Chloro-4-[1-(4-chlorophenyl)-1H-pyrrolo[2,3-c]pyridin-2-yl]pyridine] | 5.00 to 6.00 | 6.70 to 7.30 |
| CC(C)OCCNc1ncc(-c2nc3ccncc3n2-c2ccc(F)cc2)cn1 [Example 38, 5-[3-(4-Fluorophenyl)-3H-imidazo[4,5-c]pyridin-2-yl]-N-[2-(propan-2-yloxy)ethyl]pyrimidin-2-amine] | – | 6.70 to 7.30 |
| Clc1ccc(-n2c(-c3cnc(N4CCNCC4)s3)nc3ccncc32)cc1 [Example 19, 1-{5-[3-(4-Chlorophenyl)-3H-imidazo[4,5-c]pyridin-2-yl]-1,3-thiazol-2-yl}piperazine] | – | 6.70 to 7.30 |
| Fc1ccc(-n2c(-c3cnc(N4CCOCC4)c(F)c3)nc3ccncc32)cc1 [Example 98, 4-{3-Fluoro-5-[3-(4-fluorophenyl)-3H-imidazo[4,5-c]pyridin-2-yl]pyridin-2-yl}morpholine] | – | 6.70 to 7.30 |
| O=C1CN(c2ncc(-c3nc4ccncc4n3-c3ccc(F)cc3)cn2)CCN1 [Example 12, 4-{5-[3-(4-Fluorophenyl)-3H-imidazo[4,5-c]pyridin-2-yl]pyrimidin-2-yl}piperazin-2-one] | – | 6.70 to 7.30 |
| Fc1ccccc1-n1c(-c2cnc(N3CCOCC3)nc2)nc2ccncc21 [Example 60, 4-{5-[3-(2-Fluorophenyl)-3H-imidazo[4,5-c]pyridin-2-yl]pyrimidin-2-yl}morpholine] | – | 6.70 to 7.30 |
| Clc1ccc(-n2c(-c3ccncc3)cc3ccncc32)cc1 [Example 120, 4-[1-(4-Chlorophenyl)-1H-pyrrolo[2,3-c]pyridin-2-yl]pyridine] | 5.00 to 6.00 | 5.92 to 6.70 |
| O=c1cc(-c2cc3ccncc3n2-c2ccc(Cl)cc2)cn[nH]1 [Example 146, 5-[1-(4-Chlorophenyl)-1H-pyrrolo[2,3-c]pyridin-2-yl]-2,3-dihydropyridazin-3-one] | – | 6.70 to 7.30 |
| Clc1ccc(-n2c(-c3cnc(N4CCOCC4)nc3)cc3ccncc32)cc1 [Example 127, 4-{5-[1-(4-Chlorophenyl)-1H-pyrrolo[2,3-c]pyridin-2-yl]pyrimidin-2-yl}morpholine] | 6.00 to 7.00 | – |
